# Experimental data taken from publication PMC6651387, “Fine-Tuning the Activation Mode of an 1,3-Indandione-Based Ruthenium(II)-Cymene Half-Sandwich Complex by Variation of Its Leaving Group” (Molecules, 2019).
# Assays:
# [1] = system: A549 (non-small cell lung cancer) cells; test: MTT antiproliferative assay, A549; format: cell-based, human; conditions: exposure time 96 h, means ± standard deviations
# Procedure: (§1) CH1/PA-1 (ovarian teratocarcinoma) cells were a generous gift from Lloyd R. Kelland (CRC Centre for Cancer Therapeutics, Institute of Cancer Research, Sutton, UK). A549 (non-small cell lung cancer), SW480, and HCT116 (both colon cancer) cells were kindly provided by the Institute of Cancer Research, Department of Medicine I, Medical University of Vienna, Austria. All cell lines were grown as monolayer cultures in Eagle’s MEM supplemented with L-glutamine (4 mM), sodium pyruvate (1 mM) and 1% (v/v) non-essential amino acid solution (all from Sigma-Aldrich) and 10% (v/v) heat-inactivated fetal calf serum (FCS, BioWest) in 75-cm^2 flasks (Starlab) at 37 °C under a humidified atmosphere containing 5% CO2 in air. […] After 24 h, test compounds were dissolved in DMSO (Fisher Scientific), serially diluted in complete MEM not to exceed a final DMSO content of 0.5% (v/v) and added in 100 μL per well. After 96 h, the drug-containing medium was replaced with 100 µL of RPMI 1640/MTT mixture, i. e., 6 parts of RPMI 1640 medium (Sigma-Aldrich; supplemented with 10% heat-inactivated fetal bovine serum and 4 mM L-glutamine), 1 part of MTT solution in phosphate-buffered saline (5 mg/mL; both from Sigma-Aldrich). After incubation for 4 h, the MTT-containing medium was replaced with 150 μL DMSO per well to dissolve the formazan product formed by viable cells. Optical densities at 550 nm (and at the reference wavelength of 690 nm) were measured with a microplate reader (ELx808, Bio-Tek). The IC50 values relative to untreated controls were interpolated from concentration–effect curves. At least three independent experiments were performed, each with triplicates per concentration level.
# [2] = system: CH1/PA-1 (ovarian teratocarcinoma) cells; test: MTT antiproliferative assay, CH1/PA-1; format: cell-based, human; conditions: exposure time 96 h, means ± standard deviations
# Procedure: CH1/PA-1 (ovarian teratocarcinoma) cells were a generous gift from Lloyd R. Kelland (CRC Centre for Cancer Therapeutics, Institute of Cancer Research, Sutton, UK). A549 (non-small cell lung cancer), SW480, and HCT116 (both colon cancer) cells were kindly provided by the Institute of Cancer Research, Department of Medicine I, Medical University of Vienna, Austria. All cell lines were grown as monolayer cultures in Eagle’s MEM supplemented with L-glutamine (4 mM), sodium pyruvate (1 mM) and 1% (v/v) non-essential amino acid solution (all from Sigma-Aldrich) and 10% (v/v) heat-inactivated fetal calf serum (FCS, BioWest) in 75-cm^2 flasks (Starlab) at 37 °C under a humidified atmosphere containing 5% CO2 in air.
# Antiproliferative activity of the compounds was determined with the colorimetric MTT assay (MTT = 3-(4,5-dimethyl-2-thiazolyl)-2,5-diphenyl-2H-tetrazolium bromide). CH1/PA-1, HCT116, SW480, and A549 cells with cell numbers of 1 × 10^3, 1.5 × 10^3, 2 × 10^3, and 3 × 10^3, respectively, were seeded in 100 μL per well into 96-well microculture plates (Starlab). After 24 h, test compounds were dissolved in DMSO (Fisher Scientific), serially diluted in complete MEM not to exceed a final DMSO content of 0.5% (v/v) and added in 100 μL per well. After 96 h, the drug-containing medium was replaced with 100 µL of RPMI 1640/MTT mixture, i. e., 6 parts of RPMI 1640 medium (Sigma-Aldrich; supplemented with 10% heat-inactivated fetal bovine serum and 4 mM L-glutamine), 1 part of MTT solution in phosphate-buffered saline (5 mg/mL; both from Sigma-Aldrich). After incubation for 4 h, the MTT-containing medium was replaced with 150 μL DMSO per well to dissolve the formazan product formed by viable cells. Optical densities at 550 nm (and at the reference wavelength of 690 nm) were measured with a microplate reader (ELx808, Bio-Tek). The IC50 values relative to untreated controls were interpolated from concentration–effect curves. At least three independent experiments were performed, each with triplicates per concentration level.
# [3] = system: HCT116 (colon cancer) cells; test: MTT antiproliferative assay, HCT116; format: cell-based, human; conditions: exposure time 96 h, means ± standard deviations
# Procedure: as §1
# [4] = system: SW480 (colon cancer) cells; test: MTT antiproliferative assay, SW480; format: cell-based, human; conditions: exposure time 96 h, means ± standard deviations
# Procedure: as §1
# [5] = Lipophilicity by RP-UHPLC capacity factors (logkw, Φ0); format: physicochemical; conditions: for Intercept logkw: RP-UHPLC, MeOH/0.1% formic acid in water, 25 °C, logk extrapolated to 100% water; for Φ0: percentage of methanol in the eluent at which logk is zero, Φ0 = −logkw/S; for Slope S: slope of logk against % organic eluent (MeOH)
# Text: It stands to reason that the higher the lipophilicity, the higher the cell accumulation; as far as passive diffusion is concerned, the higher efficiency with which normal cell function is compromised. As a consequence, lipophilicity is an important factor in drug development, described by the partition coefficient logP, which is routinely determined by the distribution of a compound in 1-octanol/water. However, 1-octanol, a solvent said to closely mimic the solubilizing behavior of cell membranes, forms emulsions with water. Additionally, the shake-flask method, seemingly easy, requires long sample preparation, has a low sample throughput, and lacks reproducibility, as it hinges on exact temperature control and consistent equilibration time allotted for every analyte. The time-consuming nature of this method may also lead to decomposition of the analyte. A concentration-, flow rate-, and column length-independent method is the determination of the capacity factor (k) via HPLC. The capacity factor is a measure for the equilibrium concentration between a polar phase (eluent) and an apolar phase (C18 column coating) and higher resemblance to the partition coefficient in […]. […] The percentage of methanol in the eluent at which logk is equal to zero is Φ0 [27, 28, 29].
# The capacity factors k were determined with the use of an RP-UHPLC. The necessary chromatograms were recorded with a Dionex UltiMate 3000 RS UHPLC system (Thermo Fisher Scientific, Bedford, MA, USA) controlled by the Dionex Chromeleon 7.2 software. […] The capacity factors were then calculated as logk = log[(tR − t0)/t0], where tR and t0 are the retention times of the analyte and the dead time marker, respectively, at the respective MeOH:0.1% FA in water ratio. Every retention time was determined in isocratic mode for the different eluent ratios to obtain capacity factors in the linear range (−0.5 ≤ logk ≤ 1.5) in triplicate. A plot of logk against the % of the organic eluent yielded logkw (intercept) and S (slope). Φ0, the factor most closely resembling logP, was then determined as follows: Φ0 = −logkw/S [28].
structure (smiles),measurement,setting,value
Cc1ccc(C(C)C)cc1.F[P-](F)(F)(F)(F)F.O=C1C2=C(NCc3ccccc3)[O][Ru-]([n+]3ccc[nH]3)[O+]=C2c2ccccc21 [1c],IC50,[1],22.9 ± 3.5 µM
same,IC50,[2],11.5 ± 2 µM
same,IC50,[3],22.4 ± 6 µM
same,IC50,[4],15.2 ± 0.6 µM
same,Intercept logkw,[5],5.36
same,Φ0,[5],63.72
same,Slope S,[5],−0.0841
Cc1ccc(C(C)C)cc1.Cn1ccnc1.F[P-](F)(F)(F)(F)F.O=C1C(=C(NCc2ccccc2)[O][Ru+])C(=O)c2ccccc21 [1b],IC50,[1],21.4 ± 1.7 µM
same,IC50,[2],16.2 ± 2.6 µM
same,IC50,[3],24.6 ± 8.5 µM
same,IC50,[4],10.9 ± 1 µM
same,Intercept logkw,[5],5.49
same,Φ0,[5],61.84
same,Slope S,[5],−0.0888
Cc1ccc(C(C)C)cc1.F[P-](F)(F)(F)(F)F.O=C1C2=C(NCc3ccccc3)[O][Ru-]([n+]3c[nH]c4ccccc43)[O+]=C2c2ccccc21 [1d],IC50,[1],19 ± 0.8 µM
same,IC50,[2],10.6 ± 1.8 µM
same,IC50,[3],18.8 ± 5.8 µM
same,IC50,[4],8.8 ± 1.3 µM
same,Intercept logkw,[5],5.55
same,Φ0,[5],65.87
same,Slope S,[5],−0.0843
Cc1ccc(C(C)C)cc1.O=C1C2=C(NCc3ccccc3)[O][Ru-]([Cl])[O+]=C2c2ccccc21 [1a],IC50,[1],23.4 ± 2.5 µM
same,IC50,[2],12.5 ± 4.4 µM
same,IC50,[3],24.8 ± 6.4 µM
same,IC50,[4],12.4 ± 0.4 µM
same,Intercept logkw,[5],5.41
same,Φ0,[5],63.19
same,Slope S,[5],−0.0855
Cc1ccc(C(C)C)cc1.F[P-](F)(F)(F)(F)F.O=C1C2=C(NCc3ccccc3)[O][Ru-]([NH+]3CCOCC3)[O+]=C2c2ccccc21 [1g],IC50,[1],18.9 ± 1.4 µM
same,IC50,[2],12.2 ± 2.7 µM
same,IC50,[3],23.8 ± 7.6 µM
same,IC50,[4],9.2 ± 1.8 µM
same,Intercept logkw,[5],5.14
same,Φ0,[5],59.73
same,Slope S,[5],–0.0860
Cc1ccc(C(C)C)cc1.F[P-](F)(F)(F)(F)F.O=C1C2=C(NCc3ccccc3)[O][Ru-]([n+]3cc4ccccc4[nH]3)[O+]=C2c2ccccc21 [1e],IC50,[1],23.7 ± 6.4 µM
same,IC50,[2],11 ± 3 µM
same,IC50,[3],25.1 ± 7.1 µM
same,IC50,[4],16.8 ± 3.1 µM
same,Intercept logkw,[5],5.94
same,Φ0,[5],68.88
same,Slope S,[5],−0.0863
